Key:
MS751 cells = test: MTT cell proliferation assay, MS751; format: cell-based, human; conditions: Homo sapiens, MS751, MS751 cells; eight concentrations 1 nM to 30 μM; incubation approximately 64-72 hours; read-out: MTT Assay IC50, MS751
Description: (§1) The MTT cell proliferation assay was used to study the cytotoxic properties of the compounds. The assay was performed according to the method described by Roche Molecular Biochemicals, with minor modifications. The assay is based on the cleavage of the tetrazolium salt, MTT, in the presence of an electron-coupling reagent. The water-insoluble formazan salt produced must be solubilized in an additional step. Cells grown in a 96-well tissue culture plate were incubated with the MTT solution for approximately 4 hours. After this incubation period, a water-insoluble formazan dye formed. After solubilization, the formazan dye was quantitated using a scanning multi-well spectrophotometer (ELISA reader). […] The cells were seeded at 5,000-10,000 cells in each well of 96-well plate in 100 μL of fresh culture medium and were allowed to attach overnight. The stock solutions of the compounds were diluted in 100 μL cell culture medium to obtain eight concentrations of each test compound, ranging from 1 nM to 30 μM. […] All optical densities were measured at 490 nm using a Vmax Kinetic Microplate Reader (Molecular Devices). In most cases, the assay was performed in duplicate and the results were presented as a mean percent inhibition to the negative control±SE. The following formula was used to calculate the percent of inhibition: Inhibition (%)=(1-(ODo/OD)) ×100.
(§2) The compounds were tested against MS751, Z138 and 3T3 cells. The MS751 cell line is derived from a metastasis to lymph node of human cervix from a patient diagnosed with squameous cell carcinoma of the cervix. The Z138 cell line is a mature B-cell acute lymphoblastic leukemia cell line derived from a patient with chronic lumphocytic leukemia. 3T3 cells are standard fibroblast cells; they were originally isolated from Swiss mouse embryo tissue.

Z138 cells = test: MTT cell proliferation assay, Z138; format: cell-based; conditions: Homo sapiens, Z-138, Z138 cells; eight concentrations 1 nM to 30 μM; incubation approximately 64-72 hours; read-out: MTT Assay IC50, Z138
Description: as §1, §2

3T3 cells = test: MTT cell proliferation assay, 3T3; format: cell-based, mouse; conditions: Mus musculus, NIH3T3, 3T3 cells; eight concentrations 1 nM to 30 μM; incubation approximately 64-72 hours; read-out: MTT Assay IC50, 3T3
Description: as §1, §2

| Structure (SMILES) | IC50 (MS751 cells) | IC50 (Z138 cells) | IC50 (3T3 cells) |
| --- | --- | --- | --- |
| O=C(/C=C/c1cccnc1)NCC1Cc2cc(-c3ccc(Cl)cc3F)cc(Cl)c2O1 (stereo not drawn) [Compound 55, (E)-N-((7-chloro-5-(4-chloro-2-fluorophenyl)-2,3-dihydrobenzofuran-2-yl)methyl)-3-(pyridin-3-yl)acrylamide] | 0.1 to 5 µM | 0.1 to 5 µM | > 30 µM |
| O=C(/C=C/c1cccnc1)NCC1Cc2cc(-c3cccc(CO)c3)cc(Cl)c2O1 (stereo not drawn) [Compound 58, (E)-N-((7-chloro-5-(3-(hydroxymethyl)phenyl)-2,3-dihydrobenzofuran-2-yl)methyl)-3-(pyridin-3-yl)acrylamide] | 0.1 to 5 µM | 0.1 to 5 µM | 0.1 to 5 µM |
| COc1ccc(F)cc1-c1cc(Cl)c2c(c1)CC(CNC(=O)/C=C/c1cccnc1)O2 (stereo not drawn) [Compound 61, (E)-N-((7-chloro-5-(5-fluoro-2-methoxyphenyl)-2,3-dihydrobenzofuran-2-yl)methyl)-3-(pyridin-3-yl)acrylamide] | 0.1 to 5 µM | 0.1 to 5 µM | 0.1 to 5 µM |
| CN(C)c1ccc(-c2cc(Cl)c3c(c2)CC(CNC(=O)/C=C/c2cccnc2)O3)cc1 (stereo not drawn) [Compound 64, (E)-N-((7-chloro-5-(4-(dimethylamino)phenyl)-2,3-dihydrobenzofuran-2-yl)methyl)-3-(pyridin-3-yl)acrylamide] | 0.1 to 5 µM | < 0.1 µM | 0.1 to 5 µM |
| O=C(/C=C/c1cccnc1)NCC1Cc2cc(-c3ccccc3)cc(Cl)c2O1 (stereo not drawn) [Compound 67, (E)-N-((7-chloro-5-phenyl-2,3-dihydrobenzofuran-2-yl)methyl)-3-(pyridin-3-yl)acrylamide] | 0.1 to 5 µM | 0.1 to 5 µM | 5 to 30 µM |
| O=C(/C=C/c1cccnc1)NCC1Cc2cc(-c3cccnc3)cc(Cl)c2O1 (stereo not drawn) [Compound 70, (E)-N-((7-chloro-5-(pyridin-3-yl)-2,3-dihydrobenzofuran-2-yl)methyl)-3-(pyridin-3-yl)acrylamide] | 0.1 to 5 µM | 0.1 to 5 µM | 5 to 30 µM |
| O=C(/C=C/c1cccnc1)NCC1Cc2cc(-c3cccc(F)c3F)cc(Cl)c2O1 (stereo not drawn) [Compound 73, (E)-N-((7-chloro-5-(2,3-difluorophenyl)-2,3-dihydrobenzofuran-2-yl)methyl)-3-(pyridin-3-yl)acrylamide] | 0.1 to 5 µM | 0.1 to 5 µM | 5 to 30 µM |
| O=C(/C=C/c1cccnc1)NCC1Cc2cc(-c3cccc(C(=O)O)c3)cc(Cl)c2O1 (stereo not drawn) [Compound 76, (E)-3-(7-chloro-2-((3-(pyridin-3-yl)acrylamido)methyl)-2,3-dihydrobenzofuran-5-yl)benzoic acid] | 5 to 30 µM | 5 to 30 µM | 5 to 30 µM |
| CS(=O)(=O)c1cncc(-c2cc(Cl)c3c(c2)CC(CNC(=O)/C=C/c2cccnc2)O3)c1 (stereo not drawn) [Compound 77, (E)-N-((7-chloro-5-(5-(methylsulfonyl)pyridin-3-yl)-2,3-dihydrobenzofuran-2-yl)methyl)-3-(pyridin-3-yl)acrylamide] | 0.1 to 5 µM | 0.1 to 5 µM | 0.1 to 5 µM |
| CS(=O)(=O)c1cccc(-c2cc(Cl)c3c(c2)CC(CNC(=O)/C=C/c2cccnc2)O3)c1 (stereo not drawn) [Compound 80, (E)-N-((7-chloro-5-(3-(methylsulfonyl)phenyl)-2,3-dihydrobenzofuran-2-yl)methyl)-3-(pyridin-3-yl)acrylamide] | 0.1 to 5 µM | 0.1 to 5 µM | 0.1 to 5 µM |
| O=C(/C=C/c1cccnc1)NCC1Cc2cccc(Cl)c2O1 (stereo not drawn) [Compound 83, (E)-N-((7-chloro-2,3-dihydrobenzofuran-2-yl)methyl)-3-(pyridin-3-yl)acrylamide] | 5 to 30 µM | 5 to 30 µM | > 30 µM |
| Nc1ccccc1-c1cc(Cl)c2c(c1)CC(CNC(=O)/C=C/c1cccnc1)O2 (stereo not drawn) [Compound 84, (E)-N-((5-(2-aminophenyl)-7-chloro-2,3-dihydrobenzofuran-2-yl)methyl)-3-(pyridin-3-yl)acrylamide] | 0.1 to 5 µM | 0.1 to 5 µM | 5 to 30 µM |
| CC(=O)c1ccc(-c2cc(F)c3c(c2)CC(CNC(=O)/C=C/c2cccnc2)O3)s1 (stereo not drawn) [Compound 87, (E)-N-((5-(5-acetylthiophen-2-yl)-7-fluoro-2,3-dihydrobenzofuran-2-yl)methyl)-3-(pyridin-3-yl)acrylamide] | 0.1 to 5 µM | 0.1 to 5 µM | 0.1 to 5 µM |
| CC(=O)c1ccc(-c2cc(Cl)c3c(c2)CC(CNC(=O)/C=C/c2cccnc2)O3)o1 (stereo not drawn) [Compound 99, (E)-N-((5-(5-acetylfuran-2-yl)-7-chloro-2,3-dihydrobenzofuran-2-yl)methyl)-3-(pyridin-3-yl)acrylamide] | < 0.1 µM | < 0.1 µM | 0.1 to 5 µM |
| CC(=O)c1ccc(-c2cc(Cl)c3c(c2)CC(CNC(=O)/C=C/c2ccccn2)O3)s1 (stereo not drawn) [Compound 103, (E)-N-((5-(5-acetylthiophen-2-yl)-7-chloro-2,3-dihydrobenzofuran-2-yl)methyl)-3-(pyridin-2-yl)acrylamide] | > 30 µM | > 30 µM | > 30 µM |
| CC(=O)c1ccc(-c2cc(Cl)c3c(c2)CC(CNC(=O)/C=C/c2cnc(N)nc2)O3)s1 (stereo not drawn) [Compound 104, (E)-N-((5-(5-acetylthiophen-2-yl)-7-chloro-2,3-dihydrobenzofuran-2-yl)methyl)-3-(2-aminopyrimidin-5-yl)acrylamide] | > 30 µM | > 30 µM | > 30 µM |
| CC(=O)c1ccc(-c2cc(Cl)c3c(c2)CC(CNC(=O)/C=C/c2cccnc2N)O3)s1 (stereo not drawn) [Compound 106, (E)-N-((5-(5-acetylthiophen-2-yl)-7-chloro-2,3-dihydrobenzofuran-2-yl)methyl)-3-(2-aminopyridin-3-yl)acrylamide] | 5 to 30 µM | 5 to 30 µM | 5 to 30 µM |
| CC(=O)c1ccc(-c2cc(Cl)c3c(c2)CC(CNC(=O)/C=C/c2cnccc2N)O3)s1 (stereo not drawn) [Compound 108, (E)-N-((5-(5-acetylthiophen-2-yl)-7-chloro-2,3-dihydrobenzofuran-2-yl)methyl)-3-(4-aminopyridin-3-yl)acrylamide] | 0.1 to 5 µM | 0.1 to 5 µM | 5 to 30 µM |
| CC(=O)c1ccc(-c2cc(Cl)c3c(c2)CC(CNC(=O)/C=C/c2ccccc2N)O3)s1 (stereo not drawn) [Compound 110, (E)-N-((5-(5-acetylthiophen-2-yl)-7-chloro-2,3-dihydrobenzofuran-2-yl)methyl)-3-(2-aminophenyl)acrylamide] | > 30 µM | > 30 µM | > 30 µM |
| CC(=O)c1ccc(-c2cc(Cl)c3c(c2)CC(CNC(=O)/C=C/c2ccc(C#N)cc2)O3)s1 (stereo not drawn) [Compound 112, (E)-N-((5-(5-acetylthiophen-2-yl)-7-chloro-2,3-dihydrobenzofuran-2-yl)methyl)-3-(4-cyanophenyl)acrylamide] | > 30 µM | > 30 µM | > 30 µM |
| CC(=O)c1ccc(-c2cc(Cl)c3c(c2)CC(CNC(=O)/C=C/c2ccc(N)cc2)O3)s1 (stereo not drawn) [Compound 114, (E)-N-((5-(5-acetylthiophen-2-yl)-7-chloro-2,3-dihydrobenzofuran-2-yl)methyl)-3-(4-aminophenyl)acrylamide] | > 30 µM | > 30 µM | > 30 µM |
| CC(=O)c1ccc(-c2cc(Cl)c3c(c2)CC(CNC(=O)/C=C/c2ccc(N)nc2C)O3)s1 (stereo not drawn) [Compound 118, (E)-N-((5-(5-acetylthiophen-2-yl)-7-chloro-2,3-dihydrobenzofuran-2-yl)methyl)-3-(6-amino-2-methylpyridin-3-yl)acrylamide] | 5 to 30 µM | 0.1 to 5 µM | 5 to 30 µM |
